Laboratory results as given in patent publication US10988459B2 (priority 2015, dated 2021).

Molecular target: human RIP1 kinase domain (2-375) (Homo sapiens (Human), UniProt Q13546)
Assay: biochemical
Type: biochemical
Conditions: Ki
Summary of the method: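 50 nM purified kinase domain from baculovirus-infected insect cells, incubated 2 h with compound in 50 mM Hepes pH 7.5, 30 mM MgCl2, 1 mM DTT, 50 uM ATP, 0.002% Brij-35, 0.5% DMSO. ADP formation read by Transcreener FP at 633 nm excitation. Ki^app fitted with the Morrison tight-binding equation.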

Chain of human RIP1 kinase domain (2-375) (Q13546 2-375): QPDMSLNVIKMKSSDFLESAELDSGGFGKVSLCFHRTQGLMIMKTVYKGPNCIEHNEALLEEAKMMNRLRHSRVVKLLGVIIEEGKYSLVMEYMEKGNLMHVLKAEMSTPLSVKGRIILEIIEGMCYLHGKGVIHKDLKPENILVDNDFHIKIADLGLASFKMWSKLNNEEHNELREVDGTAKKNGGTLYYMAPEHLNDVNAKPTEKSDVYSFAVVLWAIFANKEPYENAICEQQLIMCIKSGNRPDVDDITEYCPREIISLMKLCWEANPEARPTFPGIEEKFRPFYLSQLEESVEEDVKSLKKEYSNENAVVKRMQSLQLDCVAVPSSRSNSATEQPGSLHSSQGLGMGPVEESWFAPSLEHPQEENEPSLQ

Question: `CN1C(=O)[C@@H](NC(=O)c2ncc3cnn(C4CCOCC4)c3n2)COc2ccccc21` [Example 558, N-[(3S)-5-methyl-4-oxo-2,3-dihydro-1,5-benzoxazepin-3-yl]-1-tetrahydropyran-4-yl-pyrazolo[3,4-d]pyrimidine-6-carboxamide] was tested. Which Ki did it give?
Answer: 39 nM

Same assay, conditions: Table 1; apparent Ki (Morrison tight-binding fit); 50 nM RIP1 kinase domain, 50 uM ATP, 2 hours incubation; read-out: RIP1 Ki

Question: With `CN1C(=O)[C@@H](NC(=O)c2n[nH]c3c2CC(c2ccccc2)CC3)COc2ccccc21` (stereo partly drawn) [Example 24, N—((S)-5-methyl-4-oxo-2,3,4,5-tetrahydrobenzo[b][1,4]oxazepin-3-yl)-5-phenyl-4,5,6,7-tetrahydro-1H-indazole-3-carboxamide] as the molecule, how does the Ki read?
Answer: 27.9 nM

Question: `O=C(N[C@H]1COc2ccccc2NC1=O)c1n[nH]c2c1CC1CC1C2` (stereo partly drawn) [Example 4, N—((S)-4-oxo-2,3,4,5-tetrahydrobenzo[b][1,4]oxazepin-3-yl)-1,4,4a,5,5a,6-hexahydrocyclopropa[f]indazole-3-carboxamide] was tested. Which Ki did it give?
Answer: 5500 nM

Same assay, conditions: Table 5; apparent Ki (Morrison tight-binding fit); 50 nM RIP1 kinase domain, 50 uM ATP, 2 hours incubation; read-out: Ki

Question: With `CN1C(=O)[C@@H](NC(=O)c2nc3n(n2)CCN[C@@H]3c2ccccc2)COc2ccccc21` (single isomer, unassigned) [Example 785] as the molecule, how does the Ki read?
Answer: 74 nM

Question: Which Ki does the source give for `C[C@@]1(C(F)(F)F)OCc2cnc(C(=O)N[C@H]3CCc4cc(F)cc(F)c4NC3=O)cc21` [Example 748, (1R)-1-methyl-N-[(3S)-7,9-difluoro-2-oxo-1,3,4,5-tetrahydro-1-benzazepin-3-yl]-1-(trifluoromethyl)-3H-furo[3,4-c]pyridine-6-carboxamide] here?
Answer: 14 nM

Same assay, conditions: human RIP1 kinase domain (2-375), 50 uM ATP, 2 hours incubation, Transcreener ADP assay; read-out: RIP1 Ki

Question: With `CCC1(C)Cc2c(C(=O)N[C@H]3COc4ccccc4N(C)C3=O)n[nH]c2CO1` (stereo partly drawn) [Example 194, 5-ethyl-5-methyl-N-((S)-5-methyl-4-oxo-2,3,4,5-tetrahydrobenzo[b][1,4]oxazepin-3-yl)-1,4,5,7-tetrahydropyrano[3,4-c]pyrazole-3-carboxamide] as the molecule, how does the Ki read?
Answer: 167 nM

Question: How did the Ki turn out when `CN1C(=O)C(NC(=O)c2nnc(Cc3ccccc3)[nH]2)CCCn2nccc21` (stereo not drawn) [Example 93, 5-benzyl-N-(4-methyl-5-oxo-4,5,6,7,8,9-hexahydropyrazolo[1,5-a][1,3]diazocin-6-yl)-4H-1,2,4-triazole-3-carboxamide] was run?
Answer: 381 nM

Question: How did the Ki turn out when `CN1C(=O)[C@@H](NC(=O)c2ccn(Cc3ccc(F)c(F)c3)n2)COc2c1cnn2C` [Example 182, (S)-1-(3,4-difluorobenzyl)-N-(1,4-dimethyl-5-oxo-4,5,6,7-tetrahydro-1H-pyrazolo[3,4-b][1,4]oxazepin-6-yl)-1H-pyrazole-3-carboxamide] was run?
Answer: 2300 nM

Question: How did the Ki turn out when `CC1CCn2cnc(C(=O)N[C@H]3COc4ccccc4N(C)C3=O)c2C1` (stereo partly drawn) [Example 190] was run?
Answer: 262 nM

Same assay, conditions: human RIP1 kinase domain (2-375), Transcreener ADP assay, 50 uM ATP, 2 hours incubation; read-out: RIP1 Ki

Question: Which Ki does the source give for `CN1C(=O)[C@@H](NC(=O)c2cc(C3(O)CCC3)ccn2)COc2ccccc21` [Example 327, (S)-4-(1-hydroxycyclobutyl)-N-(5-methyl-4-oxo-2,3,4,5-tetrahydrobenzo[b][1,4]oxazepin-3-yl)picolinamide] here?
Answer: 1370 nM

Question: For `CN1C(=O)[C@H](NC(=O)c2ncn(Cc3ccc(F)cc3F)n2)CCn2nc([C@H]3CC3(F)F)cc21` [Example 316, 1-(2,4-difluorobenzyl)-N—((R)-2-((R)-2,2-difluorocyclopropyl)-4-methyl-5-oxo-5,6,7,8-tetrahydro-4H-pyrazolo[1,5-a][1,3]diazepin-6-yl)-1H-1,2,4-triazole-3-carboxamide], which Ki is on record?
Answer: 31.8 nM

Question: With `Cc1cc2n(n1)CCC(NC(=O)c1ncn(CC3CCC3)n1)C(=O)N2C` (stereo not drawn) [Example 247, 1-(cyclobutylmethyl)-N-(2,4-dimethyl-5-oxo-5,6,7,8-tetrahydro-4H-pyrazolo[1,5-a][1,3]diazepin-6-yl)-1H-1,2,4-triazole-3-carboxamide] as the molecule, how does the Ki read?
Answer: 221 nM

Question: How did the Ki turn out when `COCC1(C)OCc2cnc(C(=O)N[C@H]3COc4ccccc4N(C)C3=O)cc21` (stereo partly drawn) [Example 231, 1-(methoxymethyl)-1-methyl-N—((S)-5-methyl-4-oxo-2,3,4,5-tetrahydrobenzo[b][1,4]oxazepin-3-yl)-1,3-dihydrofuro[3,4-c]pyridine-6-carboxamide] was run?
Answer: 511 nM

Question: Which Ki does the source give for `CN1C(=O)[C@@H](NC(=O)c2ncn(Cc3ccc(F)cc3F)n2)CCn2nc([C@@H]3CC3(F)F)cc21` [Example 322, 1-(2,4-difluorobenzyl)-N—((S)-2-((S)-2,2-difluorocyclopropyl)-4-methyl-5-oxo-5,6,7,8-tetrahydro-4H-pyrazolo[1,5-a][1,3]diazepin-6-yl)-1H-1,2,4-triazole-3-carboxamide] here?
Answer: 28.6 nM

Question: With `CN1C(=O)[C@@H](NC(=O)c2nnc(Cc3ccccc3)o2)CCn2nc(C3CC3)cc21` [Example 282, (S)-5-benzyl-N-(2-cyclopropyl-4-methyl-5-oxo-5,6,7,8-tetrahydro-4H-pyrazolo[1,5-a][1,3]diazepin-6-yl)-1,3,4-oxadiazole-2-carboxamide] as the molecule, how does the Ki read?
Answer: 59.4 nM

Same assay, conditions: tight-binding apparent inhibition constant; human RIP1 kinase domain (2-375) 50 nM, 50 uM ATP, 2 hours; read-out: Ki

Question: How did the Ki turn out when `CN1C(=O)[C@@H](NC(=O)c2ncc3c(n2)[C@](C)(CC(F)(F)F)OC3)COc2ccccc21` (racemic) [Example 688, rac-(7S)-7-methyl-N-[rac-(3 S)-5-methyl-4-oxo-2,3-dihydro-1,5-benzoxazepin-3-yl]-7-(2,2,2-trifluoroethyl)-5H-furo[3,4-d]pyrimidine-2-carboxamide] was run?
Answer: 43.7 nM

Question: With `O=C(N[C@H]1COc2cc(F)cc(F)c2NC1=O)c1ncc2c(n1)C1(CCC1)OC2` [Example 617, N-[(3S)-6,8-difluoro-4-oxo-3,5-dihydro-2H-1,5-benzoxazepin-3-yl]spiro[5H-furo[3,4-d]pyrimidine-7,1′-cyclobutane]-2-carboxamide] as the molecule, how does the Ki read?
Answer: 11 nM

Question: `CCC[C@@]1(C)OCc2cnc(C(=O)N[C@H]3COc4cc(F)cc(F)c4NC3=O)nc21` [Example 620, (7R)-7-methyl-7-propyl-N-[(3S)-6,8-difluoro-4-oxo-3,5-dihydro-2H-1,5-benzoxazepin-3-yl]-5H-furo[3,4-d]pyrimidine-2-carboxamide] was tested. Which Ki did it give?
Answer: 14 nM

Question: Which Ki does the source give for `Cc1cc2n(n1)CC[C@H](NC(=O)c1ncn(Cc3ccccc3C#N)n1)C(=O)N2C` [Example 590, 1-[(2-cyanophenyl)methyl]-N-(6S)-2,4-dimethyl-5-oxo-7,8-dihydro-6H-pyrazolo[1,5-a][1, 3]diazepin-6-yl-1,2,4-triazole-3-carboxamide] here?
Answer: 700 nM

Question: How did the Ki turn out when `CN1C(=O)[C@@H](NC(=O)c2ncn(C[C@H]3C[C@@H](C)C3)n2)CCn2nccc21` [Example 496, N—((S)-4-methyl-5-oxo-5,6,7,8-tetrahydro-4H-pyrazolo[1,5-a][1,3]diazepin-6-yl)-1-(((1S,3R)-3-methylcyclobutyl)methyl)-1H-1,2,4-triazole-3-carboxamide] was run?
Answer: 52 nM

Question: Which Ki does the source give for `CC[C@]1(C)OCc2cnc(C(=O)N[C@H]3COc4ccccc4N(C)C3=O)nc21` (racemic) [Example 685, rac-(7S)-7-ethyl-7-methyl-N-[rac-(3S)-5-methyl-4-oxo-2,3-dihydro-1,5-benzoxazepin-3-yl]-5H-furo[3,4-d] pyrimidine-2-carboxamide] here?
Answer: 21.4 nM

Question: `COc1ccccc1Cn1cnc(C(=O)N[C@H]2CCn3nc(C)cc3N(C)C2=O)n1` [Example 589, 1-[(2-methoxyphenyl)methyl]-N-(6S)-2,4-dimethyl-5-oxo-7,8-dihydro-6H-pyrazolo[1,5-a][1,3]diazepin-6-yl-1,2,4-triazole-3-carboxamide] was tested. Which Ki did it give?
Answer: 48 nM

Question: With `CN1C(=O)C(NC(=O)c2ncn(Cc3ccccc3)n2)CCn2nc(C(C)(C)F)cc21` (single isomer, unassigned) [Example 369, 1-benzyl-N-[2-(1-fluoro-1-methyl-ethyl)-4-methyl-5-oxo-7,8-dihydro-6H-pyrazolo[1,5-a][1,3]diazepin-6-yl]-1,2,4-triazole-3-carboxamide] as the molecule, how does the Ki read?
Answer: 345 nM

Question: With `CC(C)Oc1cc2n(n1)CCC(NC(=O)c1ncn(Cc3ccccc3)n1)C(=O)N2C` (stereo not drawn) [Example 461, 1-Benzyl-N-(2-isopropoxy-4-methyl-5-oxo-5,6,7,8-tetrahydro-4H-pyrazolo[1,5-a][1,3]diazepin-6-yl)-1H-1,2,4-triazole-3-carboxamide] as the molecule, how does the Ki read?
Answer: 50 nM

Question: Which Ki does the source give for `O=C(N[C@H]1CCc2cc(F)cc(F)c2NC1=O)c1nc2n(n1)[C@H](C(F)(F)F)CCC2` (single isomer, unassigned) [Example 430] here?
Answer: 21 nM

Question: How did the Ki turn out when `CCC1CCc2nc(C(=O)N[C@H]3CCn4nccc4N(C)C3=O)nn21` (stereo partly drawn) [Example 351, 5-ethyl-N-[(6S)-4-methyl-5-oxo-7,8-dihydro-6H-pyrazolo[1,5-a][1,3]diazepin-6-yl]-6,7-di hydro-5H-pyrrolo[1,2-b][1,2,4]triazole-2-carboxamide] was run?
Answer: 394 nM

Question: `Cc1cc2n(n1)CC[C@H](NC(=O)c1ncn(C[C@H]3C[C@@H](C)C3)n1)C(=O)N2C` [Example 499, N—((S)-2,4-dimethyl-5-oxo-5,6,7,8-tetrahydro-4H-pyrazolo[1,5-a][1,3]diazepin-6-yl)-1-(((1R,3S)-3-methylcyclobutyl)methyl)-1H-1,2,4-triazole-3-carboxamide] was tested. Which Ki did it give?
Answer: 870 nM

Question: For `CC(C)[C@H]1CCCc2nc(C(=O)N[C@H]3CCc4cc(F)cc(F)c4NC3=O)nn21` (single isomer, unassigned) [Example 434], which Ki is on record?
Answer: 174 nM

Question: For `Cc1ncc2n1CC[C@@H](NC(=O)c1ncn(Cc3cc(F)ccc3F)n1)C(=O)N2C` [Example 577, 1-[(2,5-difluorophenyl)methyl]-N-(3R)-1,7-dimethyl-2-oxo-4,5-dihydro-3H-imidazo[1,5-a][1,3]diazepin-3-yl-1,2,4-triazole-3-carboxamide], which Ki is on record?
Answer: 80 nM

Question: How did the Ki turn out when `CN1C(=O)[C@@H](NC(=O)c2nc3n(n2)C(C2CCOC2)CCC3)CCn2nccc21` (stereo partly drawn) [Example 390, N—((S)-4-methyl-5-oxo-5,6,7,8-tetrahydro-4H-pyrazolo[1,5-a][1,3]diazepin-6-yl)-5-(tetra hydrofuran-3-yl)-5,6,7,8-tetrahydro-[1,2,4]triazolo[1,5-a]pyridine-2-carboxamide] was run?
Answer: 3000 nM
